Where two headings read alike, the source gives them in different places.
Experiments:
[1] = biological target: T1, Set9 (His-Set9, His-Set7/9) (Homo sapiens, UniProt Q8WTS6); test: Assay for measuring histone methyltransferase activity using peptidyl MCA, inhibitor evaluation with Set9; type: biochemical
T1 sequence (Q8WTS6 1-366): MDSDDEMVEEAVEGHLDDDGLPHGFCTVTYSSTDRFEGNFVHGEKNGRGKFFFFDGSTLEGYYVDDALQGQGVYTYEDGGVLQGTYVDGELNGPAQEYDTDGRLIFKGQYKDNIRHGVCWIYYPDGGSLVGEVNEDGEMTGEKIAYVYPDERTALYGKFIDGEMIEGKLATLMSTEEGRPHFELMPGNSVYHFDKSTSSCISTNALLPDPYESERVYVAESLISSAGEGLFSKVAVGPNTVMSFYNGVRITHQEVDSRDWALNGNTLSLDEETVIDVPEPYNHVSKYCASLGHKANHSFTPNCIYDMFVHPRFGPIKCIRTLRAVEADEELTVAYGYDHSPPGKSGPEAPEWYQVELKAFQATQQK
Protocol: When Set9 was adopted as a histone methyltransferase, the following method was used. 10 μL of 2×HMT buffer (100 mM Tris-HCl (pH 8.5), 20 mM MgCl2, 40 mM KCl, 20 mM 2-mercaptoethanol, 500 mM sucrose), 0.4 μL of a BSA solution (150 μg/mL), 4.5 μL of His-Set9 (0, 2.25 μg/μL), 1 μL of gliotoxin (any of various concentrations) and 0.1 μL of distilled water were mixed and then incubated at room temperature for 1 hour. Then, 2 μL of SAM (10 mM) and 2 μL of a peptidyl MCA (Ac-p53 (369-372)-MCA) solution (0.6 mM) were added thereto, which was then incubated at 37° C. for 1 hour. Thereafter, 30 μL of a trypsin solution (20 mg/mL) was added thereto, followed by incubation at 37° C. for 15 minutes. Then, the fluorescence intensity of the solution was measured at an excitation wavelength (λex) of 390 nm and a fluorescence wavelength (λem) of 460 nm. The final concentration of His-Set9 during the measurement of fluorescence intensity was 0.5 μg/μL. […]
The rate of the inhibition of methylation by gliotoxin was calculated from the results in the left panel and the middle panel of FIG. 18. Specifically, the value (%) was calculated which was obtained by dividing “a value obtained by subtracting “the fluorescence intensity of AMC when peptidase was added but gliotoxin was not added” from “the fluorescence intensity of AMC when both peptidase and gliotoxin were added”” by “a value obtained by subtracting “the fluorescence intensity of AMC when peptidase was added but gliotoxin was not added” from “the fluorescence intensity of AMC when no peptidase or gliotoxin was added”” and multiplying the resultant value by 100. […]
When His-Set7/9 was adopted as a histone methyltransferase, the following method was used. […] Then, the fluorescence intensity of the solution was measured at an excitation wavelength (λex) of 330 nm and a fluorescence wavelength (λem) of 380 nm or at an excitation wavelength (λex) of 390 nm and a fluorescence wavelength (λem) of 460 nm. The final concentration of His-Set7/9 during the measurement of fluorescence intensity was 0 μg/μL or 0.05 μg/μL.

lysyl endopeptidase = lysyl endopeptidase (Achromobacter lyticus, UniProt P15636); test: LC/MS analysis of reaction between substrate compound and lysyl endopeptidase; type: biochemical; conditions: Example 3; 37° C., 15 minutes
Chain of lysyl endopeptidase (P15636 206-473 limits assumed, species assumed): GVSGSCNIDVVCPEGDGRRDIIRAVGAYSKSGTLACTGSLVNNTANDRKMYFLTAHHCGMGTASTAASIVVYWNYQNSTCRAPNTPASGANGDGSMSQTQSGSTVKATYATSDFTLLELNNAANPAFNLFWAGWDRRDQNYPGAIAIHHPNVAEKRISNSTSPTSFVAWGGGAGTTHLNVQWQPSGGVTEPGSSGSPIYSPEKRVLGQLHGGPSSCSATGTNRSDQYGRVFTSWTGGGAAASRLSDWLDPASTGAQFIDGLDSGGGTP
Protocol: Distilled water was added to 10 μL of 2×HMT buffer (100 mM Tris-HCl (pH 8.5), 20 mM MgCl2, 40 mM KCl, 20 mM 2-mercaptoethanol, 500 mM sucrose) and 1 μL of a BocLysMCA solution to adjust the total volume to 20 μL. To the resultant solution was added 30 μL of a peptidase solution (20 mg/mL trypsin or 20 mAU/mL lysyl endopeptidase), which was then mixed and incubated at 37° C. for 15 minutes. Then, the solution was applied to a liquid chromatograph mass spectrometer (LC/MS) for analysis. Analysis was performed by the same method as that for the above analysis except for using monomethylated BocLysMCA (i.e., “BocLys(Me)MCA”), dimethylated BocLysMCA (i.e., “BocLys(Me)2MCA”), or trimethylated BocLysMCA (i.e., “BocLys(Me)3MCA”) in place of BocLysMCA. Analysis was also carried out by the same method except for using, in place of the above-described peptidase solution, an equal volume of distilled water.

SMILES: CN1C(=O)[C@]23CC4=CC=C[C@H](O)[C@H]4N2C(=O)[C@@]1(CO)SS3 [gliotoxin]
- IC50 ([1]; Example 8, Ac-p53 (369-372)-MCA, AMC fluorescence λex 390 nm/λem 460 nm, FIG. 18, read-out: IC50 for Set9): > 100 µM
- IC50 ([1]; Example 14, Ac-ERα(299-302)-MCA, AMC fluorescence λex 390 nm/λem 460 nm, left panel, read-out: IC50 for His-Set7/9): > 100 µM
- IC50 ([1]; Example 14, Ac-ERα(299-302)-MCA, peptidyl MCA fluorescence λex 330 nm/λem 380 nm, right panel of FIG. 28, read-out: IC50 for His-Set7/9): > 100 µM

SMILES: Cc1cc(=O)oc2cc(NC(=O)C(CCCCN)NC(=O)OC(C)(C)C)ccc12 (stereo not shown) [BocLysMCA, Boc-K-MCA]
- hydrolysis by lysyl endopeptidase (LC/MS peaks) (lysyl endopeptidase): most BocLysMCA was hydrolyzed

Reference: US9012166B2, “Method for assaying histone methylation enzyme activity” (Kyushu Institute of Technology, priority 2010, dated 2015)
